Measurements taken from patent US12673915B2, “Precursor compound of hexahydro-beta-acid component compound, feed composition and use thereof” (WISORIG TECHNOLOGIES PTE. LIMITED, priority 2020, dated 2026).

Tests used:
[1] = Photostability testing under illumination of 4500 Lx of ingredient and 1% premix (HPLC); type: physicochemical; conditions: for Residual amount of active ingredient: 4500 Lx
From the text: Preparation of a sample of 1% premix of an ingredient: 1 g of an ingredient was respectively weighed out and evenly mixed with 99 g of corncob meal in a mixer to give a sample of 1% premix of an ingredient for testing.
Photostability testing: The samples of an ingredient and 1% premix thereof were respectively spread in petri dishes to form thin layers of <5 mm, and kept under an illumination of 4500 Lx. Three replications for a sample were sampled in parallel on day 5 and day 10 for HPLC analysis.
25.0 mg of an ingredient was accurately weighed out and dissolved in an appropriate amount of methanol by ultrasonication. The solution was then transferred to a volumetric flask and diluted to 25 mL with methanol to give a stock solution. The samples from the stock solution were diluted with methanol respectively to a concentration of 100 ppm, 500 ppm, and 1000 ppm of work solution, and then the working solutions were filtered by 0.22 μm organic membranes. Between the concentration of a sample and the response value of HPLC peak area thereof, the linearity was adjusted and detected to give a standard curve.
2.3: Preparation of Sample Solution 25.0 mg of an ingredient and 2.0000 g of a sample of 1% premix thereof were respectively accurately weighed out, and dissolved in 25 mL of methanol by ultrasonication for 10 minutes. The resulting solutions were filtered by organic membranes and then analyzed by HPLC. 2.4: Testing Conditions for HPLC • Column: Symmetry Cis column (Waters; 250 mm*4.6 mm, 5 μm). • Mobile phase: 0.02% phosphoric acid:methanol=5:95 (v:v). • Wavelength: 235 nm. • Temperature of the Column: 25° C. • Injection volume: 10 μL. • Flow rate: 1 mL/min. 3: Results

[2] = system: Duroc×Landrace×Yorkshire cross-bred bacon-type piglets; assay: Effect on the production performance of hogs (14-day feeding trial); type: in vivo; conditions: 14 days, piglets
From the text: 480 67-day-old Duroc×Landrace×Yorkshire cross-bred bacon-type piglets with similar body weight, were randomly divided into 16 groups, with 3 replications per group, 10 piglets per replication and equal amounts of males and females. The pig pen and tools were sterilized before the trial. In the trial, the piglets were kept in separate regions in the same pig pen under the same feeding and management conditions, were given a free hand with the feed and the water, and were fed twice a day. The groups were known as control group (group 1) and test groups 2 to 16. The piglets of the control group were fed with basal formula feed only, while those of the test groups 2 to 16 were respectively fed with basal formula feed mixed with different additives, wherein the active ingredient of the additives was a hexahydro-β-acid compound or a prodrug of a hexahydro-β-acid compound provide herein, and the content thereof in the feed was 5 or 25 ppm as shown in Table 4.
The trial lasted for 14 days. During the trial, each test group was not fed with other antioxidants or growth enhancers. On the 14th day, each test group was fed with no feed but water for 12 hours, and the piglets of each replication as one unit were weighed to calculate the average daily feed intake (ADFI, g/d per piglet), the average daily weight gain (ADG, g/d per piglet), and the feed conversion ratio (FCR). Average daily feed intake=(Total weight of provided feed−Weight of residual feed)/(Days of the trial×Number of piglets in each replicate) Average daily weight gain=(final average body weight−initial average body weight)/Days of the trial Feed conversion ratio=average daily feed intake/average daily weight gain

[3] = system: yellow broilers; assay: Effect on the production performance of broilers (30-day feeding trial); type: in vivo; conditions: for ADFI (average daily feed intake) / ADG (average daily weight gain) / FCR (feed conversion ratio): 30 days, broilers; for effects on the production performance of broilers compared with hexahydro-colupulone (in words): in vivo
From the text: Single-factor was used to conduct the trial. 540 1-day-old yellow broilers with a similar average body weight of 50 g were randomly divided into 6 groups, with 6 replicates per group, equal amount of males and females and 15 yellow broilers per replicate. The chicken house and tools were sterilized before the trial. During the trial, the broilers were kept in separate regions in the same chicken house under the same feeding and management conditions. During the trial, each test group was fed with basal formula feed consisting of corn and soybean and not fed with other antioxidants or growth enhancers. The groups were known as control group (group 1) and test groups 2 to 6, wherein the control group was fed with basal formula feed only, while the test groups 2 to 6 were fed with basal formula feeds respectively mixed with hexahydro-colupulone, hexahydro-colupulone mono-acetate, or hexahydro-colupulone mono-butyrate, as shown in Table 5.
The trial lasted for 30 days. The broilers were given free hand with feed and water and were fed twice a day. To calculate the average daily feed intake (ADFI, g/d per broiler), the average daily weigh gain (ADG, g/d per broiler) and the feed conversion ratio (FCR), the 31 days old broilers (12 hours without feed but water) of each replication as one unit were weighed, and the amount of the feed consumed thereby was counted. Feed conversion ratio (FCR)=average daily feed intake/average daily weight gain

[4] = 1% Premix of an ingredient (corncob meal), Day 5
[5] = 1% Premix of an ingredient (corncob meal), Day 10

Row | Residual amount of active ingredient [1, 4] [%] | Residual amount of active ingredient [1, 5] [%] | Residual amount of active ingredient ([1]; Ingredient, Day 5) [%] | Residual amount of active ingredient ([1]; Ingredient, Day 10) [%] | change of active ingredient ([1]; active ingredient of 1% premix, photostability testing, day 10) | Structure (SMILES) | ADFI (average daily feed intake) ([2]; 5 ppm in feed) [g/d per piglet] | ADG (average daily weight gain) ([2]; 5 ppm in feed) [g/d per piglet] | FCR (feed conversion ratio) ([2]; 5 ppm in feed) | ADFI (average daily feed intake) ([2]; 25 ppm in feed) [g/d per piglet] | ADG (average daily weight gain) ([2]; 25 ppm in feed) [g/d per piglet] | FCR (feed conversion ratio) ([2]; 25 ppm in feed) | ADFI (average daily feed intake) ([3]; 2 ppm in feed) [g/d per broiler] | ADG (average daily weight gain) ([3]; 2 ppm in feed) [g/d per broiler] | FCR (feed conversion ratio) ([3]; 2 ppm in feed) | ADFI (average daily feed intake) ([3]; 20 ppm in feed) [g/d per broiler] | ADG (average daily weight gain) ([3]; 20 ppm in feed) [g/d per broiler] | FCR (feed conversion ratio) ([3]; 20 ppm in feed) | effects on the production performance of broilers compared with hexahydro-colupulone (in words) [3]
1 | 99.28 | 98.82 | 98.97 | 98.31 |  | CC(=O)OC1=C(CCC(C)C)C(=O)C(CCC(C)C)(CCC(C)C)C(O)=C1C(=O)C(C)C [hexahydro-colupulone mono-acetate, Hexahydro-Colupulone Mono-Acetate] | 860 | 368 | 2.340 | 960 | 435 | 2.208 | 49.13 | 25.67 | 2.02 | 50.06 | 27.36 | 1.95 | equivalent
2 | 99.14 | 98.08 | 99.99 | 99.10 |  | CCCC(=O)OC1=C(CCC(C)C)C(=O)C(CCC(C)C)(CCC(C)C)C(O)=C1C(=O)C(C)C [hexahydro-colupulone mono-butyrate] | 991 | 447 | 2.217 | 973 | 441 | 2.205 | 48.32 | 24.65 | 1.96 | 49.95 | 25.88 | 1.93 | equivalent
3 | 90.11 | 83.62 | 92.71 | 85.66 | more than 15% | CC(C)CCC1=C(O)C(C(=O)C(C)C)=C(O)C(CCC(C)C)(CCC(C)C)C1=O [hexahydro-colupulone, reference compound] |  |  |  | 894 | 403 | 2.218 |  |  |  | 49.68 | 25.19 | 1.97 | 
